# Measured values taken from patent US6703409B2, “2′-Halo-3′,5′-dialkoxyphen-1′-yl-imino-2-imidazolidine and the use thereof as a drug” (Boehringer Ingelheim Pharma GmbH & Co KG, priority 2002, dated 2004).
# Assays:
# human urethra = assay: Maximum contraction in the human urethra compared with noradrenaline; settings: as percentage of contraction compared with noradrenaline
# Text: (§1) The maximum contraction in the isolated dog femoral artery and the human urethra are given as percentages of contraction compared with noradrenaline.
# [1] = tested on: isolated dog femoral artery; assay: Maximum contraction in the isolated dog femoral artery compared with noradrenaline; settings: as percentage of contraction compared with noradrenaline
# Text: as §1
# CYP2D6 = CYP2D6 (Homo sapiens, UniProt P10635); assay: Metabolism by the enzyme CYP2D6; assay type: in vitro ADME; settings: CYP2D6, after 30 minutes
# CYP2D6, sequence (P10635 whole entry, species assumed): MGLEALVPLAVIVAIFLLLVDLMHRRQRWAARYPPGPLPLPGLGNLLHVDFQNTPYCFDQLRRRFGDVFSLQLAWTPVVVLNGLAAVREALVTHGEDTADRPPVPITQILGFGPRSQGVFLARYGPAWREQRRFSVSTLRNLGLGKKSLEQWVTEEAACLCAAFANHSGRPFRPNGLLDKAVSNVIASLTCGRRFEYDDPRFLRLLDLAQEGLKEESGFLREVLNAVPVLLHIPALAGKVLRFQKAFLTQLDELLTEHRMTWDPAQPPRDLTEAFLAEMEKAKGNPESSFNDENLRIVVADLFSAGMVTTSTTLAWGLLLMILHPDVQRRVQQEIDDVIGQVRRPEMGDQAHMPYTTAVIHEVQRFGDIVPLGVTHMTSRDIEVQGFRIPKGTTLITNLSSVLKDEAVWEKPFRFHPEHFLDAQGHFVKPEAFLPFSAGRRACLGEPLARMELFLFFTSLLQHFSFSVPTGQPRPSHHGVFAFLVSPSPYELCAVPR
# Procedure: To determine the metabolism the enzyme CYP2D6 was reacted with 2′-Chloro-3′,5′-dimethoxyphen-1′-yl-imino-2-imidazolidine. After 30 minutes 2.4% of the substance had been broken down by the enzyme.
smiles,measurement,setting,value
"COc1cc(N=C2NCCN2)c(Cl)c(OC)c1 [2′-chloro-3′,5′-dimethoxyphen-1′-yl-imino-2-imidazolidine]",activity on human urethra,human urethra,66.2%
same,activity in the dog,[1],65%
same,substance broken down by the enzyme,CYP2D6,2.4%
